From PubChem BioAssay (NCI)
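Cells were grown in 96-well plates and exposed to each compound for 48 hours at five concentrations; endpoints were interpolated linearly between bracketing concentrations, or set to the highest concentration if not reached. The concentration for full growth arrest is given as TGI.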

Tests used:
Assay in all cases: growth of human tumour cells (NCI), 48 h
OVCAR-5 ovarian = test system: OVCAR-5 ovarian
CCRF-CEM leukemia = test system: CCRF-CEM leukemia
IGROV1 ovarian = test system: IGROV1 ovarian
MALME-3M melanoma = test system: MALME-3M melanoma
DMS 273 small cell lung = test system: DMS 273 small cell lung
M19-MEL melanoma = test system: M19-MEL melanoma
NCI-H460 lung = test system: NCI-H460 lung
KM12 colon = test system: KM12 colon
RXF 393 renal = test system: RXF 393 renal
SF-539 CNS = test system: SF-539 CNS
NCI-H522 lung = test system: NCI-H522 lung
M14 melanoma = test system: M14 melanoma
OVCAR-4 ovarian = test system: OVCAR-4 ovarian
ACHN renal = test system: ACHN renal
NCI-H226 lung = test system: NCI-H226 lung
SN12C renal = test system: SN12C renal
DLD-1 colon = test system: DLD-1 colon
SNB-75 CNS = test system: SNB-75 CNS
OVCAR-8 ovarian = test system: OVCAR-8 ovarian
SK-OV-3 ovarian = test system: SK-OV-3 ovarian
OVCAR-3 ovarian = test system: OVCAR-3 ovarian
CAKI-1 renal = test system: CAKI-1 renal
786-0 renal = test system: 786-0 renal
HCT-116 colon = test system: HCT-116 colon
UACC-257 melanoma = test system: UACC-257 melanoma
UACC-62 melanoma = test system: UACC-62 melanoma
XF 498 CNS = test system: XF 498 CNS
NCI-H23 lung = test system: NCI-H23 lung
HOP-62 NSCLC = test system: HOP-62 NSCLC
MOLT-4 leukemia = test system: MOLT-4 leukemia
HL-60(TB) leukemia = test system: HL-60(TB) leukemia
SK-MEL-2 melanoma = test system: SK-MEL-2 melanoma
LXFL 529 NSCLC = test system: LXFL 529 NSCLC
K-562 leukemia = test system: K-562 leukemia
COLO 205 colon = test system: COLO 205 colon
HOP-18 NSCLC = test system: HOP-18 NSCLC
DMS 114 small cell lung = test system: DMS 114 small cell lung
HOP-92 NSCLC = test system: HOP-92 NSCLC
LOX IMVI melanoma = test system: LOX IMVI melanoma
SW-620 colon = test system: SW-620 colon
SF-295 CNS = test system: SF-295 CNS
A549 NSCLC = test system: A549 NSCLC
KM20L2 colon = test system: KM20L2 colon
SNB-78 CNS = test system: SNB-78 CNS
EKVX NSCLC = test system: EKVX NSCLC
RPMI-8226 leukemia = test system: RPMI-8226 leukemia
TK-10 renal = test system: TK-10 renal
SK-MEL-5 melanoma = test system: SK-MEL-5 melanoma
SK-MEL-28 melanoma = test system: SK-MEL-28 melanoma
HCT-15 colon = test system: HCT-15 colon
U251 CNS = test system: U251 CNS
UO-31 renal = test system: UO-31 renal
HT29 colon = test system: HT29 colon
SR leukemia = test system: SR leukemia
A498 renal = test system: A498 renal
SF-268 CNS = test system: SF-268 CNS
HCC-2998 colon = test system: HCC-2998 colon
RXF-631 renal = test system: RXF-631 renal

Compound: C[N+]1=c2c3cccc4cccc(c(=O)n2CCC1)c43
- TGI (OVCAR-5 ovarian): 36.5 µM
- TGI (CCRF-CEM leukemia): 28.9 µM
- TGI (IGROV1 ovarian): > 100 µM
- TGI (MALME-3M melanoma): 32.9 µM
- TGI (DMS 273 small cell lung): 56.7 µM
- TGI (M19-MEL melanoma): 35.8 µM
- TGI (NCI-H460 lung): 37.7 µM
- TGI (KM12 colon): > 100 µM
- TGI (RXF 393 renal): 60.8 µM
- TGI (SF-539 CNS): > 100 µM
- TGI (NCI-H522 lung): 30.2 µM
- TGI (M14 melanoma): 33.2 µM
- TGI (OVCAR-4 ovarian): 42.9 µM
- TGI (ACHN renal): 51.8 µM
- TGI (NCI-H226 lung): 36.5 µM
- TGI (SN12C renal): 52.7 µM
- TGI (DLD-1 colon): 46.9 µM
- TGI (SNB-75 CNS): 78.7 µM
- TGI (OVCAR-8 ovarian): 39.9 µM
- TGI (SK-OV-3 ovarian): 80.1 µM
- TGI (OVCAR-3 ovarian): 55.1 µM
- TGI (CAKI-1 renal): 84 µM
- TGI (786-0 renal): > 100 µM
- TGI (HCT-116 colon): 43.6 µM
- TGI (UACC-257 melanoma): 32.9 µM
- TGI (UACC-62 melanoma): 34.1 µM
- TGI (XF 498 CNS): 38 µM
- TGI (NCI-H23 lung): 39.1 µM
- TGI (HOP-62 NSCLC): 86.2 µM
- TGI (MOLT-4 leukemia): 58.9 µM
- TGI (HL-60(TB) leukemia): 25.3 µM
- TGI (SK-MEL-2 melanoma): 35.3 µM
- TGI (LXFL 529 NSCLC): 40.7 µM
- TGI (K-562 leukemia): 32 µM
- TGI (COLO 205 colon): 32.2 µM
- TGI (HOP-18 NSCLC): > 100 µM
- TGI (DMS 114 small cell lung): 38.7 µM
- TGI (HOP-92 NSCLC): 93.3 µM
- TGI (LOX IMVI melanoma): 29.4 µM
- TGI (SW-620 colon): > 100 µM
- TGI (SF-295 CNS): > 100 µM
- TGI (A549 NSCLC): 96.8 µM
- TGI (KM20L2 colon): 47.2 µM
- TGI (SNB-78 CNS): 94.6 µM
- TGI (EKVX NSCLC): 65 µM
- TGI (RPMI-8226 leukemia): 52.3 µM
- TGI (TK-10 renal): 56.4 µM
- TGI (SK-MEL-5 melanoma): 32.5 µM
- TGI (SK-MEL-28 melanoma): 39.6 µM
- TGI (HCT-15 colon): > 100 µM
- TGI (U251 CNS): > 100 µM
- TGI (UO-31 renal): 39.5 µM
- TGI (HT29 colon): 52.5 µM
- TGI (SR leukemia): 46.9 µM
- TGI (A498 renal): 36.5 µM
- TGI (SF-268 CNS): 60.2 µM

Compound: CS(=O)(=O)OCc1c(O)c2c(c(O)c1COS(C)(=O)=O)C(=O)C=CC2=O
- TGI (OVCAR-5 ovarian): > 100 µM
- TGI (CCRF-CEM leukemia): > 100 µM
- TGI (HCC-2998 colon): > 100 µM
- TGI (IGROV1 ovarian): > 100 µM
- TGI (MALME-3M melanoma): > 100 µM
- TGI (DMS 273 small cell lung): > 100 µM
- TGI (KM12 colon): > 100 µM
- TGI (SF-539 CNS): > 100 µM
- TGI (NCI-H522 lung): > 100 µM
- TGI (M14 melanoma): > 100 µM
- TGI (OVCAR-4 ovarian): > 100 µM
- TGI (ACHN renal): > 100 µM
- TGI (NCI-H226 lung): > 100 µM
- TGI (SN12C renal): > 100 µM
- TGI (DLD-1 colon): > 100 µM
- TGI (SNB-75 CNS): > 100 µM
- TGI (OVCAR-8 ovarian): > 100 µM
- TGI (SK-OV-3 ovarian): > 100 µM
- TGI (RXF-631 renal): > 100 µM
- TGI (OVCAR-3 ovarian): > 100 µM
- TGI (CAKI-1 renal): > 100 µM
- TGI (HCT-116 colon): > 100 µM
- TGI (UACC-257 melanoma): > 100 µM
- TGI (UACC-62 melanoma): > 100 µM
- TGI (NCI-H23 lung): > 100 µM
- TGI (HOP-62 NSCLC): > 100 µM
- TGI (MOLT-4 leukemia): > 100 µM
- TGI (HL-60(TB) leukemia): > 100 µM
- TGI (SK-MEL-2 melanoma): > 100 µM
- TGI (LXFL 529 NSCLC): > 100 µM
- TGI (K-562 leukemia): > 100 µM
- TGI (COLO 205 colon): > 100 µM
- TGI (HOP-18 NSCLC): > 100 µM
- TGI (DMS 114 small cell lung): > 100 µM
- TGI (HOP-92 NSCLC): > 100 µM
- TGI (SW-620 colon): > 100 µM
- TGI (SF-295 CNS): > 100 µM
- TGI (A549 NSCLC): > 100 µM
- TGI (KM20L2 colon): > 100 µM
- TGI (SNB-78 CNS): > 100 µM
- TGI (EKVX NSCLC): > 100 µM
- TGI (RPMI-8226 leukemia): > 100 µM
- TGI (TK-10 renal): > 100 µM
- TGI (SK-MEL-5 melanoma): > 100 µM
- TGI (SK-MEL-28 melanoma): > 100 µM
- TGI (HCT-15 colon): > 100 µM
- TGI (U251 CNS): > 100 µM
- TGI (UO-31 renal): > 100 µM
- TGI (HT29 colon): > 100 µM
- TGI (SR leukemia): > 100 µM
- TGI (A498 renal): > 100 µM
- TGI (SF-268 CNS): > 100 µM
